Assay results from patent US20210015942A1, “ANTIBODY PROTAC CONJUGATES” (Development Center for Biotechnology, priority 2018, published 2021).

Assays:
BRD4 = BRD4 (Homo sapiens, UniProt O60885); conditions: BT-474 cells (HER2-positive), 24 hours treatment, various concentrations up to 1 μM, western blot
BRD2, BRD3, and BRD4 = conditions: read-out: EC50, inhibitor of BRD2, BRD3, and BRD4; cited from earlier work

Row | BRD4 protein degradation (BRD4) | SMILES | EC50 (BRD2, BRD3, and BRD4)
1 | as effective as ARV-825 | Cc1sc2c(c1C)C(c1ccc(Cl)cc1)=N[C@@H](CC(=O)Nc1ccc(OCCOCCNCCOCCNc3cccc4c3C(=O)N(C3CCC(=O)NC3=O)C4=O)cc1)c1nnc(C)n1-2 (stereo partly drawn) [Compound 5] | –
2 | cannot degrade BRD4 protein | Cc1sc2c(c1C)C(c1ccc(Cl)cc1)=N[C@@H](CC(=O)Nc1ccc(OCCOCCN(CCOCCNc3cccc4c3C(=O)N(C3CCC(=O)NC3=O)C4=O)C(=O)OCc3ccc(NC(=O)[C@H](CCCNC(N)=O)NC(=O)[C@@H](NC(=O)CCCCCN4C(=O)C=CC4=O)C(C)C)cc3)cc1)c1nnc(C)n1-2 (stereo partly drawn) [Compound 7] | –
3 | – | Cc1sc2c(c1C)C(c1ccc(Cl)cc1)=N[C@@H](CC(=O)Nc1ccc(O)cc1)c1nnc(C)n1-2 [OTX015] | 10 to 19 nM
